Where no end group is shown, it is not given here. [ ]: non-standard residue; d: D form. The star is where a group is joined. hArg = N=C(N)NCCCC[C@H](N)C(=O)O; Nle = CCCC[C@H](N)C(=O)O; Hexanoyl = CCCCCC(=O)*; Aib = CC(C)(N)C(=O)O
Assays:
human PAC1 [1] = molecular target: T1, human PAC1 (Homo sapiens, UniProt P41586); test: DiscoveRx cAMP in vitro potency, CHO-PO cells transiently transfected with human PAC1 receptor; type: cell-based; parameters: expressed in transfected cells; host or cells: CHO-PO, transient (Lipofectamine); details: cAMP generation; mean of two independent runs; read-out: Human PAC1 Receptor: DiscoveRx EC50
T1 sequence (P41586 21-468): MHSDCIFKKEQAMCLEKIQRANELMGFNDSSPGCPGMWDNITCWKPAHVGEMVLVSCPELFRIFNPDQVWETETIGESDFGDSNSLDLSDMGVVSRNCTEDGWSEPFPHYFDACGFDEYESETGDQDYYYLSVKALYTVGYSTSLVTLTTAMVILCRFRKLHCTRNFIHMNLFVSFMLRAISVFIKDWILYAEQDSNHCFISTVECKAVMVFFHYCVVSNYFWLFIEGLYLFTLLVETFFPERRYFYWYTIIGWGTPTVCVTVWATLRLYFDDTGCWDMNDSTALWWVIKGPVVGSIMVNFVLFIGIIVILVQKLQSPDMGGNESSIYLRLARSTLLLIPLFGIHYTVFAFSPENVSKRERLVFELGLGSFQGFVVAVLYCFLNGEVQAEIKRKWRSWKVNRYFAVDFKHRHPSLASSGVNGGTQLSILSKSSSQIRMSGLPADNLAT
Description: Also, the cells are washed twice. The cells are incubated in assay buffer plus IBMX for 15 minutes at room temperature. […] The stimuli are present for 30 minutes. Then, the assay buffer is gently removed. […] At day 3, the assay described above for the VPAC2 receptor cell line is performed.

[2] = Rat serum stability studies (remaining active peptide by DiscoveRx cAMP on CHO-VPAC2 cells); type: in vitro ADME
Procedure, shortened: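 EC50 from a DiscoveRx cAMP read-out on CHO-VPAC2 cells indexes how much peptide stays active after 18 h in rat serum at 37° C without aprotinin, against an aprotinin-protected 4° C aliquot.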

human VPAC2 [3] = molecular target: T2, human VPAC2 (Homo sapiens, UniProt P41587); test: Filter binding assay, membranes of stable VPAC2 cell line, 125I-labeled VIP tracer (Table 2); details: read-out: Human VPAC2 Receptor Binding
T2 construct: expressed in transfected cells
T2 sequence (P41587 24-438): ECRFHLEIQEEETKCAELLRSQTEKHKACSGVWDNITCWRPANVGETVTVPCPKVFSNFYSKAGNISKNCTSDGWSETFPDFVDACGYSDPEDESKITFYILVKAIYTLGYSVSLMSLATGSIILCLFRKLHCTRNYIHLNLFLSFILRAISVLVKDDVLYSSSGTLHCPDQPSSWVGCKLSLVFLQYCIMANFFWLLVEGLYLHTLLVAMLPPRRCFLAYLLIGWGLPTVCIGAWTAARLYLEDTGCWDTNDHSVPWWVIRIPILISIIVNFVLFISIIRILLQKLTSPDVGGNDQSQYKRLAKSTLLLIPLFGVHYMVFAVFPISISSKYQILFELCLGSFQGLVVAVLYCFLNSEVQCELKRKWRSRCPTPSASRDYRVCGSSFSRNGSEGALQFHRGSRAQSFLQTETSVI
Procedure, shortened: (§1)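 Radioligand displacement was measured with 2.5 μg membrane protein per well and roughly 40000 cpm of iodinated tracer. After a 1-hour incubation, bound and free label were separated on BSA-blocked glass-fibre filters and quantified by scintillation.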

human VPAC2 [4] = molecular target: T2, human VPAC2; test: Alpha screen cAMP in vitro potency, human VPAC2 receptor; type: cell-based; details: cAMP generation; single result from two analyses performed in a single run; read-out: Human VPAC2 Receptor: Alpha Screen EC50
Procedure, shortened: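 Under reduced light, acceptor beads accompany the stimuli during a 60-minute incubation of cells in stimulation buffer (50,000 per well point). Donor beads go in with lysis buffer for a further 60–120 minutes, and the resulting AlphaScreen signal indicates cAMP levels.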

human PAC1 [5] = molecular target: T1, human PAC1; test: Filter binding assay, membranes of cells transiently transfected with human PAC1, 125I-labeled PACAP-27 tracer (Table 2); parameters: expressed in transfected cells; details: read-out: Human PAC1 Receptor Binding
Procedure, shortened: as §1

rat VPAC2 receptor = molecular target: T3, rat VPAC2 receptor (Rattus norvegicus, UniProt P35000); test: DiscoveRx in vitro potency, CHO-PO cells transiently transfected with rat VPAC 2 receptor DNA; type: cell-based; parameters: expressed in transfected cells; host or cells: CHO-PO, transient
T3 sequence (P35000 23-437): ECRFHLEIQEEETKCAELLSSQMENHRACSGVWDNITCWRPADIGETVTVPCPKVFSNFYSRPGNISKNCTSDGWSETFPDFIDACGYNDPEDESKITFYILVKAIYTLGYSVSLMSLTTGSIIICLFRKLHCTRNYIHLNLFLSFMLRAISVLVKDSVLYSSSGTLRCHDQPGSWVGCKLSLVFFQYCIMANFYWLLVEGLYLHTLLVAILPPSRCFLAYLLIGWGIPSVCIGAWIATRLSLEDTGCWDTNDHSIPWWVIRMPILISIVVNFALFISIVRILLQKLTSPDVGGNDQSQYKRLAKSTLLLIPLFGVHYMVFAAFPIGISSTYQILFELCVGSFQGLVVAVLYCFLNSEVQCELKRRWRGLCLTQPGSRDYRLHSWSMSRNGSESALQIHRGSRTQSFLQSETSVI
Description: Also, the cells are washed twice. […] The stimuli are present for 30 minutes. Then, the assay buffer is gently removed.

human VPAC1 = molecular target: T4, human VPAC1 (Homo sapiens, UniProt P32241); test: Filter binding assay, membranes of cells transiently transfected with human VPAC1, 125I-labeled VIP tracer (Table 2); parameters: expressed in transfected cells; details: read-out: Human VPAC1 Receptor Binding
T4 sequence (P32241 31-457): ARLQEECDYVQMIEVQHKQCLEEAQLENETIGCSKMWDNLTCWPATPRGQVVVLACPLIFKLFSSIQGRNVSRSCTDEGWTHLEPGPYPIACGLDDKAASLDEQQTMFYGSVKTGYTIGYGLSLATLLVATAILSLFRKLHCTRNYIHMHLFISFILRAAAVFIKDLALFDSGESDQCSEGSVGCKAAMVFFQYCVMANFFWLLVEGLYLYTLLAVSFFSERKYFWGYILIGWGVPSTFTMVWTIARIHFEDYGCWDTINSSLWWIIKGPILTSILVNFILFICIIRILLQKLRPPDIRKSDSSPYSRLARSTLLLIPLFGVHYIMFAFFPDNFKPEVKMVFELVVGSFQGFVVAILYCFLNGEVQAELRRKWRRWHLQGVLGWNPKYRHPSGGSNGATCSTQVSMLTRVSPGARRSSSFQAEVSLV
Procedure, shortened: as §1

Compound | EC50 (human PAC1 [1]) | Rat Serum Stability (estimated purity in % after 18 hours) [2] | IC50 (human VPAC2 [3]) | EC50 (human VPAC2 [4]) | IC50 (human PAC1 [5]) | EC50 (rat VPAC2 receptor) | IC50 (human VPAC1)
H-HSDAVFTDNYTRLRKQVAAKKYLQSIKNKRYC [Agonist P37] | 35.6 nM |  |  |  |  |  | 
HSDAFFTDNYTRLRKQVAAKKYLQSIKNKRYGGPSSGAPPPS [Agonist P58] | 35.6 nM |  |  |  |  |  | 
HSDFVFTDNYTRLRKQVAAKKYLQSIKNKRYGGPSSGAPPPS [Agonist P52] | > 1000 nM |  |  |  |  |  | 
HSDAWFTDNYTRLRKQVAAKKYLQSIKNKRYGGPSSGAPPPS [Agonist P69] | 104 nM |  |  |  |  |  | 
HSDTVFTDNYTRLRKQVAAKKYLQSIKNKRYGGPSSGAPPPS [Agonist P54] | > 1000 nM |  |  |  |  |  | 
CCCCCC(=O)N[C@@H](Cc1c[nH]cn1)C(=O)N[C@@H](CO)C(=O)N[C@@H](CC(=O)O)C(=O)N[C@@H](C)C(=O)N[C@H](C(=O)N[C@@H](Cc1ccccc1)C(=O)N[C@H](C(=O)N[C@@H](CC(=O)O)C(=O)N[C@@H](CC(N)=O)C(=O)N[C@@H](Cc1ccc(O)cc1)C(=O)N[C@H](C(=O)N[C@@H](CCCNC(=N)N)C(=O)N[C@@H](CC(C)C)C(=O)N[C@@H](CCCNC(=N)N)C(=O)N[C@@H](CCCCN)C(=O)N[C@@H](CCC(N)=O)C(=O)N[C@H](C(=O)N[C@@H](C)C(=O)N[C@@H](C)C(=O)NC(C)(C)C(=O)N[C@@H](CCCCN)C(=O)N[C@@H](Cc1ccc(O)cc1)C(=O)N[C@@H](CC(C)C)C(=O)N[C@@H](CCC(N)=O)C(=O)N[C@@H](CO)C(=O)N[C@H](C(=O)N[C@@H](CCCCN)C(=O)N[C@@H](CC(N)=O)C(=O)N[C@@H](CCCCN)C(=O)N[C@@H](CCCNC(=N)N)C(=O)N[C@@H](Cc1ccc(O)cc1)C(=O)NCC(=O)NCC(=O)N1CCC[C@H]1C(=O)N[C@@H](CO)C(=O)N[C@@H](CO)C(=O)NCC(=O)N[C@@H](C)C(=O)N1CCC[C@H]1C(=O)N1CCC[C@H]1C(=O)N1CCC[C@H]1C(=O)N[C@@H](CO)C(=O)O)[C@@H](C)CC)C(C)C)[C@@H](C)O)[C@@H](C)O)C(C)C [Agonist P169] |  | 0.40% | 0.26 nM | 0.14 nM | 482 nM | 0.07 nM | 240 nM
Hexanoyl-HSDAVFTDNYTRLR[Aib]QVAAKKYLQSIKNKRYGGPSSGAPPPS [Agonist P168] |  | 10.47% | 0.21 nM | 0.27 nM | 538 nM | 0.05 nM | 234 nM
Hexanoyl-HSDAVFTDNYTRLR[Aib]QLAA[Aib]KYLQSIKNKRYGGPSSGAPPPS [Agonist P291] |  | 28.09% | 0.45 nM | 0.36 nM | > 25000 nM | 0.06 nM | > 3000 nM
Hexanoyl-HSDAVFTDNYTRL[hArg]KQVAAKKYLQSIKNKRYGGPSSGAPPPS [Agonist P305] |  | 0.23% | 0.17 nM | 0.17 nM | 171 nM | 0.04 nM | 268 nM
Hexanoyl-HSDAVFTDNYTRLRKQVAAK[Aib]YLQSIKNKRYGGPSSGAPPPS [Agonist P170] |  | 0.31% | 0.34 nM | 0.18 nM | 200 nM | 0.15 nM | 275 nM
Hexanoyl-HSDAVFTDNYTRLRKQVAAQKYLQSIKNKRYGGPSSGAPPPS [Agonist P150] |  | 0.21% | 0.25 nM | 0.18 nM | 916 nM | 0.1 nM | 444 nM
H-HSDAVFTDNYTRLRKQVAAKKYLQSIQNKRYGGPSSGAPPPS [Agonist P74] | 145 nM |  |  |  |  |  | 
Hexanoyl-HSDAVFTDNYTRLR[Aib]Q[Nle]AA[Aib]KYLQSIKNKRYGGPSSGAPPPS [Agonist P325] |  | 13.13% | 0.4 nM | 0.24 nM | > 25000 nM | 0.04 nM | > 3000 nM
Hexanoyl-HSDAVFTDNYTRLRQQVAAKKYLQSIKNKRYGGPSSGAPPPS [Agonist P177] |  | 0.49% | 0.7 nM | 0.21 nM | 276 nM | 0.1 nM | 128 nM
HSDYVFTDNYTRLRKQVAAKKYLQSIKNKRYGGPSSGAPPPS [Agonist P51] | > 1000 nM |  |  |  |  |  | 
HSDAVFTDNYTRLRKQVAAKKYLQSIKNRRYGGPSSGAPPPS [Agonist P25] | 137 nM |  | 1.65 nM |  |  |  | 233 nM
HSDAVFTDNYTRLRKQVAAKKYLQSIKN[hArg]RYGGPSSGAPPPS [Agonist P24] | > 100 nM |  | 1.97 nM |  |  |  | 198 nM
HSDAVFTDNYTRLRKQVAASKYLQSIKNKRYGGPSSGAPPPS [Agonist P21] | > 100 nM |  | 4.94 nM | 11.6 nM |  |  | 385 nM
HSDAVFTDNWTRLRKQVAAKKYLQSIKNKRYGGPSSGAPPPS [Agonist P27] | > 100 nM |  |  |  |  |  | 
HLDAVFTDNYTRLRKQVAAKKYLQSIKNKRYGGPSSGAPPPS [Agonist P46] | > 1000 nM |  |  |  |  |  | 
HGDAVFTDNYTRLRKQVAAKKYLQSIKNKRYGGPSSGAPPPS [Agonist P43] | 104 nM |  |  |  |  |  | 

Source: US20080026996A1, “Selective Vpac2 Receptor Reptide Agonists” (ELI LILLY AND COMPANY, priority 2004, published 2008)
